IC50 data for five compounds are collected here from patent publication US6492418B2, “Compositions containing a benzamide disulfide derivative for treating allergic diseases” (Alcon Universal Ltd., priority 2000, dated 2002).

As a reminder, the IC50 is the concentration at which inhibition is half-maximal. What is called pIC50 is the IC50 on a negative log10 scale, so that one unit is a factor of ten.

pIC50: −log10 of the molar value. Where “and” joins values, the source holds several entries; their conditions need not be identical. Equal values may be shown once. Read-outs that look alike come from different tables or passages of the source.

The test system of the assay is human conjunctival tissue mast cells. The experiment in a line: Inhibition of anti-IgE induced histamine release from human conjunctival tissue mast cells (HCTMC). It is filed as cell-based. Conditions: for IC50: bracketed value, apparently the mean of the individual determinations in the same cell, read-out: IC50(nM), value in square brackets; for pIC50: goat-anti-human IgE 10 μg/mL challenge 15 min after 15 min drug treatment, individual determinations (values outside brackets), read-out: IC50. Here is the method: Methods detailing preparation of mono-dispersed HCTMC and mediator release studies with these cells have been described (U.S. Pat. No. 5,360,720 and Miller et al, Ocular Immunology and Inflammation, 4(1):39-49 (1996)). Briefly, human conjunctival tissue mast cells were isolated from post-mortem tissue donors obtained within 8 hours of death by various eye banks and transported in Dexsol® corneal preservation medium, or equivalent. Tissues were enzymatically digested by repeated exposure (30 min. at 37° C.) to collagenase and hyaluronidase (2× with 200 U each/gram tissue, then 2-4 × with 2000 U each/gram tissue) in Tyrode's buffer containing 0.1% gelatin. (Tyrode's buffer (in mM): 137 NaCl, 2.7 KCl, 0.35 NaH2PO4, 1.8 CaCl2, 0.98 MgCl2, 11.9 NaHCO3, and 5.5 glucose). Each digestion mixture was filtered over Nitex® cloth (100 μm mesh, Tetko, Briarcliff Manor, N.Y.) and washed with an equal volume of buffer. Filtrates were centrifuged at 825×g (7 min). Pellets were resuspended in buffer then combined for enrichment over a […] Percoll® cushion. The enriched pellet was washed, resuspended in supplemented RPMI 1640 medium and incubated at 37° C. to equilibrate.
Cells were harvested from the culture plate and counted for viability (trypan blue exclusion) and mast cell number (toluidine blue O). Mast cells (5000/tube; 1 mL final volume) were challenged (37° C.) for 15 min with goat-anti-human IgE (10 μg/mL) following treatment (15 minutes; 37° C.) with test drug or Tyrode's buffer. Total and non-specific release controls were exposed to 0.1% Triton X-100 and goat IgG (10 μg/mL), respectively. The reaction was terminated by centrifugation (500×g, 4° C., 10 min). Supernatants were stored at −20° C. until analyzed for histamine content by RIA (Beckman Coulter, Chicago, Ill.).
All test drugs were made to solution immediately prior to use. Each was dissolved in DMSO at 10 mM or greater concentration and then diluted in Tyrode's buffer containing 0.1% gelatin over the concentration for evaluation.
Inhibition of histamine release was determined by direct comparison of with anti-IgE challenged mast cells using Dunnett's t-test (Dunnett, “A multiple comparison procedure for comparing treatments with a control”, J. Amer. Stat. Assoc. (1955), 50:1096-1121).

Consider `O=C(NCCCN1CCOCC1)c1ccccc1SSc1ccccc1C(=O)NCCCN1CCOCC1` [Compound 2], for which the pIC50 is 7.11 and 6.70 and 7.41. Also, under “Homo sapiens, Mast cell”, the IC50 was 105 nM.
`C=CCNC(=O)c1ccccc1SSc1ccccc1C(=O)NCC=C` [Compound 3]: where the note is “Homo sapiens, Mast cell”, the IC50 came out at 148 nM.
On the same count and under the same terms, the same measure for `CNC(=O)c1ccccc1SSc1ccccc1C(=O)NC` [Compound 4]: 282 nM.
Regarding `CC(O)CNC(=O)c1ccccc1SSc1ccccc1C(=O)NCC(C)O` (stereo not drawn) [Compound 5], the pIC50 was 6.97 and 6.66 and 6.64 and 7.08 and 7.15. Moreover, the IC50 (Homo sapiens, Mast cell) was 122 nM.
As to `CNC(=O)c1cccc(SSc2cccc(C(=O)NC)c2)c1` [Compound 6], the pIC50 is 6.65. The pIC50 (Homo sapiens, Mast cell, 0.25 h) was 6.40. The IC50 (Homo sapiens, Mast cell) was determined as 312 nM.
